{"source": "patent US4960790A", "about": "“Derivatives of taxol, pharmaceutical compositions thereof and methods for the preparation thereof” (University of Kansas, priority 1989, dated 1990)", "key": {"[1]": {"system": "human mammary carcinoma MX-1 xenograft", "test": "Subrenal capsule human mammary carcinoma MX-1 xenograft in mice", "conditions": "for % T/C: Q4D Days 1, 5, 9; for % T/C / # OF ANMLS ALIVE CALC/TOTAL / Average tumor WEIGHT CHANGE (DELTA) / Average tumor weight, FINAL: Day 11; for ANML BODY WT DIFF (test minus control) / TEST BODY WT CHG / # OF ANMLS ALIVE CALC/TOTAL / Average tumor WEIGHT CHANGE (DELTA) / Average tumor weight, FINAL: Q4D; for ANML BODY WT DIFF (test minus control) / TEST BODY WT CHG: Day 1 to 11", "excerpt": "The procedures followed are those described at pages 23-24 of NIH Publication No. 84-2635, In Vivo Cancer Model (February 1984).\nIn the procedure, test groups of mice (6 mice per test group) and control groups of 12 mice per group are utilized. A tumor fragment (human mammary carcinoma MX-1 xenograft), is implanted under the membranous covering of the kidney of each mouse.\nDay 0: Anesthetize animals. Record body weight (Weigh Day 1). Implant tumor, measure and record. Randomize animals after they recover from the anesthetic. Run bacterial cultures. Determine solubilities of test agent. Record deaths daily.\nDay 1: Check cultures. Discard experiment if contaminated. Prepare test materials. Initiate test agent injections (in the nape of the neck) based on individual body weight. Treatment is Q4D on Days 1, 5, and 9. Prepare test agent fresh on each injection day and administer based on individual body weight for that day.\nDays 5 and 9: Prepare test agent fresh on each injection day and administer based on individual body weight for that day.\nDay 11: End and evaluate experiment. Record body weights (Weigh Day 2). Measure tumor in OMU's (Ocular Micrometer Unit--10 OMU's=1 mm) and record.\nThe parameter measured is mean tumor weight change (delta) based on length and width measurements in millimeters. Mean animal body weights are computed for Day 1 and Day 11, compute T/C for all test groups with>65% survivors on Day 11. An excessive body weight change difference (test minus control) may also be used in evaluating toxicity. The dimensions are measured and recorded in Ocular Micrometer Units (OMU). A computer is utilized for the following:\n(1) Converts OMU's to millimeters (mm).\n(2) Calculates tumor weights (mgs) from tumor dimensions (mm×mm) following the formula for the volume of a prolate ellipsoid: [formula] (3) Calculates the change (delta) in mean tumor weight for each group of mice:\nChange in Mean Tumor Weight=Mean Tumor WeightFINAL -Mean Tumor WeightINITIAL.\n(4) Calculates the change (delta) in mean tumor weight for test (T) and control (C) groups.\n(5) Calculates T/C% for all test groups with>65% survivors on Final Evaluation Day: [formula]"}, "B-16 melanoma cells": {"system": "B-16 melanoma cells", "test": "In vitro B16 melanoma cell proliferation", "type": "cell-based", "conditions": "rank order", "method": "These studies were conducted according to standard procedures as described in Donoso and Himes, Cancer Biochem. Biophysics, vol. 7, (1984), p. 133."}, "microtubule assembly": {"system": "microtubule assembly", "test": "In vitro microtubule assembly kinetics", "type": "biochemical", "conditions": "rank order", "method": "(A) In vitro Microtubule Assembly Kinetics Studies\nThe microtubule assembly study was conducted using both 2' and 7-derivatives according to the in vitro procedures disclosed, for example, in Mellado et al., Biochemical and Biophysical Research Communications, Vol. 124, No. 2 (1984), pp. 329-336; Magri et al., J. Org. Chem., 51, 797-802 (1986); and Parness et al., Biochemical and Biophysical Research Communications, Vol. 105, No. 3, pp. 1082-1091 (1982)."}, "[2]": {"test": "Chemical stability in buffer or water", "type": "physicochemical", "method": "The compound was subjected to stability studies according to the following procedures.\n(§1) Stabilities of derivatives at various pHs were studied at 25° and 37°. The plasma studies were conducted at 37° in rat and human plasma. Human plasma was obtained from Watkins Hospital and rat plasma was obtained from the Animal Care Unit of the University of Kansas. The derivative concentration used was around 20-25 μg/ml. A stock solution of the compound was prepared at 0.8-1.0 mg/mL and was added to plasma to give the desired concentration (20-25 μg/mL). One hundred microliter samples were removed and was quenched with 250 uL. acetonitrile and centrifuged to precipitate the plasma proteins. The degradation kinetics were studied by HPLC plotting peak area vs. time. The t90 and t50 were calculated. Both chemical and plasma studies were followed by high performance liquid chromatography using a RP-8 column (15 cm) and a precolumn (5 cm). The detector was set at 227 nm. The mobile phase consisted of 0.02M acetate (pH 5): acetonitrile 50:50 or 35:65 and the flow rate ranged from 1-1.5 mL/min or the same solvents containing 0.001M tetrabutylammoniumydrogensulphate and a flow rate of 1 mL/min.\nThe identity of this peak was further confirmed by the degradation studies of the new derivatives. Thus, 2'(DMG) taxol was incubated with water at 37° and the product was concentrated and purified by preparative TLC. The product after purification was analyzed by HPLC and spectroscopic methods."}, "[3]": {"test": "Plasma stability, rat plasma", "type": "in vitro ADME", "conditions": "rat plasma (20 μg/mL), 37° C.", "method": "as §1"}, "Solubility": {"test": "Solubility", "type": "physicochemical", "conditions": "read-out: Solubility"}, "[4]": {"test": "Plasma stability, human plasma", "type": "in vitro ADME", "conditions": "37° C.", "method": "as §1, with “The derivative concentration used was around 20-25 μg/ml. A stock solution of the compound was prepared at 0.8-1.0 mg/mL and was added to plasma to give the desired concentration (20-25 μg/mL).” left out"}, "[5]": {"test": "Plasma stability, dog plasma", "type": "in vitro ADME", "conditions": "dog plasma (20 μg/mL), 37° C."}}, "note": "Where a name gives a salt, the structure may show the parent alone. Read-outs that look alike come from different tables or passages of the source."}
{"smiles": "CC(=O)O[C@H]1C(=O)[C@@]2(C)[C@H]([C@H](OC(=O)c3ccccc3)[C@]3(O)C[C@H](OC(=O)[C@H](OC(=O)CN(C)C)[C@@H](NC(=O)c4ccccc4)c4ccccc4)C(C)=C1C3(C)C)[C@]1(OC(C)=O)CO[C@@H]1C[C@@H]2O", "note": "[Compound 1, 2'-(N,N-dimethylglycyl)taxol]", "values": [{"measurement": "% T/C", "setting": "[1]; Table 1, 5.90 mg/kg", "result": -78, "unit": "%"}, {"measurement": "ANML BODY WT DIFF (test minus control)", "setting": "[1]; Table 1, 5.90 mg/kg", "result": "-.5"}, {"measurement": "TEST BODY WT CHG", "setting": "[1]; Table 1, 5.90 mg/kg", "result": -2.2}, {"measurement": "# OF ANMLS ALIVE CALC/TOTAL", "setting": "[1]; Table 1, 5.90 mg/kg", "result": "6/6"}, {"measurement": "Average tumor WEIGHT CHANGE (DELTA)", "setting": "[1]; Table 1, 5.90 mg/kg", "result": "-.48 MGS"}, {"measurement": "Average tumor weight, FINAL", "setting": "[1]; Table 1, 5.90 mg/kg", "result": ".13 MGS"}, {"measurement": "% T/C", "setting": "[1]; Table 1, 8.90 mg/kg", "result": -53, "unit": "%"}, {"measurement": "ANML BODY WT DIFF (test minus control)", "setting": "[1]; Table 1, 8.90 mg/kg", "result": ".8"}, {"measurement": "TEST BODY WT CHG", "setting": "[1]; Table 1, 8.90 mg/kg", "result": "-.9"}, {"measurement": "# OF ANMLS ALIVE CALC/TOTAL", "setting": "[1]; Table 1, 8.90 mg/kg", "result": "5/6"}, {"measurement": "Average tumor WEIGHT CHANGE (DELTA)", "setting": "[1]; Table 1, 8.90 mg/kg", "result": "-.41 MGS"}, {"measurement": "Average tumor weight, FINAL", "setting": "[1]; Table 1, 8.90 mg/kg", "result": ".36 MGS"}, {"measurement": "ANML BODY WT DIFF (test minus control)", "setting": "[1]; Table 1, 13.30 mg/kg", "result": "-.6"}, {"measurement": "TEST BODY WT CHG", "setting": "[1]; Table 1, 13.30 mg/kg", "result": -2.3}, {"measurement": "# OF ANMLS ALIVE CALC/TOTAL", "setting": "[1]; Table 1, 13.30 mg/kg", "result": "4/6"}, {"measurement": "Average tumor WEIGHT CHANGE (DELTA)", "setting": "[1]; Table 1, 13.30 mg/kg", "result": "-.64 MGS"}, {"measurement": "Average tumor weight, FINAL", "setting": "[1]; Table 1, 13.30 mg/kg", "result": ".00 MGS"}, {"measurement": "ANML BODY WT DIFF (test minus control)", "setting": "[1]; Table 1, 20.00 mg/kg", "result": "-.5"}, {"measurement": "TEST BODY WT CHG", "setting": "[1]; Table 1, 20.00 mg/kg", "result": -2.2}, {"measurement": "# OF ANMLS ALIVE CALC/TOTAL", "setting": "[1]; Table 1, 20.00 mg/kg", "result": "4/6"}, {"measurement": "Average tumor WEIGHT CHANGE (DELTA)", "setting": "[1]; Table 1, 20.00 mg/kg", "result": "-.56 MGS"}, {"measurement": "Average tumor weight, FINAL", "setting": "[1]; Table 1, 20.00 mg/kg", "result": ".00 MGS"}, {"measurement": "% T/C", "setting": "[1]; Table 1, 30.00 mg/kg", "result": "TOX"}, {"measurement": "TEST BODY WT CHG", "setting": "[1]; Table 1, 30.00 mg/kg", "result": -3.8}, {"measurement": "# OF ANMLS ALIVE CALC/TOTAL", "setting": "[1]; Table 1, 30.00 mg/kg", "result": "1/6"}, {"measurement": "Average tumor weight, FINAL", "setting": "[1]; Table 1, 30.00 mg/kg", "result": ".00 MGS"}, {"measurement": "Order of effectiveness in B-16 melanoma cell proliferation study", "setting": "B-16 melanoma cells", "result": "taxol>2'-(N,N-dimethylglycyl)taxol>2'-(N,N-diethylaminopropionyl)taxol>7-(N,N-dimethylglycyl)taxol"}, {"measurement": "Ability to assemble microtubules (order)", "setting": "microtubule assembly", "result": "taxol >7-(N,N-dimethylglycyl)taxol(11)>2'(N,N-diethylaminopropionyl)taxol(8)>2'(N,N-dimethylglycyl)taxol(2)"}, {"measurement": "Identity of degradation product", "setting": "[2]; incubated with water at 37°", "result": "the product is taxol"}]}
{"smiles": "CC(=O)O[C@H]1C(=O)[C@@]2(C)[C@H]([C@H](OC(=O)c3ccccc3)[C@]3(O)C[C@H](OC(=O)[C@H](OC(=O)CN(C)C)[C@@H](NC(=O)c4ccccc4)c4ccccc4)C(C)=C1C3(C)C)[C@]1(OC(C)=O)CO[C@@H]1C[C@@H]2O", "note": "[Compound 2, Methanesulphonic acid salt of 2'-(N,N-dimethylglycyl)taxol]", "values": [{"measurement": "half-life", "setting": "[3]", "result": 0.0508, "unit": "h"}, {"measurement": "solubility", "setting": "Solubility; Clear", "result": 2000, "unit": "µg/mL"}, {"measurement": "solubility", "setting": "Solubility; Slightly Hazy", "result": 15000, "unit": "µg/mL"}, {"measurement": "half-life", "setting": "[4]; human plasma (20 μg/mL)", "result": 3.31, "unit": "h"}, {"measurement": "half-life", "setting": "[5]", "result": 2.03, "unit": "h"}, {"measurement": "half-life", "setting": "[2]; 0.02 M Acetate (0.1 mg/mL), pH 3.5, 25° C.", "result": 96.2, "unit": "h"}, {"measurement": "half-life", "setting": "[2]; 0.02 M Acetate (0.1 mg/mL), pH 4.5, 25° C.", "result": 55.4, "unit": "h"}, {"measurement": "half-life", "setting": "[2]; water (2 mg/mL), pH 3.8, 37° C.", "result": 89.8, "unit": "h"}]}
{"smiles": "CC(=O)O[C@H]1C(=O)[C@]2(C)[C@@H](OC(=O)CN(C)C)C[C@H]3OC[C@@]3(OC(C)=O)[C@H]2[C@H](OC(=O)c2ccccc2)[C@]2(O)C[C@H](OC(=O)[C@H](O)[C@@H](NC(=O)c3ccccc3)c3ccccc3)C(C)=C1C2(C)C", "note": "[Compound 8, Methanesulphonic acid salt of 7-(dimethylglycyl)taxol]", "values": [{"measurement": "half-life", "setting": "[3]", "result": 17.3, "unit": "h"}, {"measurement": "solubility", "setting": "Solubility", "result": "> 2000", "unit": "µg/mL"}, {"measurement": "half-life", "setting": "[4]; human plasma (10 μg/mL)", "result": 24.4, "unit": "h"}, {"measurement": "half-life", "setting": "[4]; human plasma (20 μg/mL)", "result": 27.7, "unit": "h"}, {"measurement": "half-life", "setting": "[2]; 0.02 M Acetate, pH 3.5, 25° C.", "result": 3400, "unit": "h"}, {"measurement": "half-life", "setting": "[2]; 0.02 M Phosphate, pH 7.4, 25° C.", "result": 33.8, "unit": "h"}, {"measurement": "half-life", "setting": "[2]; 0.02 M acetate, pH 4.5, 25° C.", "result": 1720, "unit": "h"}]}
